Values of other authors as cited in patent US8486621B2, “Nucleic acid-based matrixes” (Cornell Research Foundation, Inc., priority 2005, dated 2013).

Tests used:
[1] = test system: major and minor grooves of the DNA molecules
[2] = test system: plasma glucose, insulin, and triglyceride levels; conditions: in vivo
PPAR-gamma = molecular target: T1, PPAR-gamma (Homo sapiens, UniProt P37231); conditions: context-specific, some cell types
T1 sequence (P37231 1-505): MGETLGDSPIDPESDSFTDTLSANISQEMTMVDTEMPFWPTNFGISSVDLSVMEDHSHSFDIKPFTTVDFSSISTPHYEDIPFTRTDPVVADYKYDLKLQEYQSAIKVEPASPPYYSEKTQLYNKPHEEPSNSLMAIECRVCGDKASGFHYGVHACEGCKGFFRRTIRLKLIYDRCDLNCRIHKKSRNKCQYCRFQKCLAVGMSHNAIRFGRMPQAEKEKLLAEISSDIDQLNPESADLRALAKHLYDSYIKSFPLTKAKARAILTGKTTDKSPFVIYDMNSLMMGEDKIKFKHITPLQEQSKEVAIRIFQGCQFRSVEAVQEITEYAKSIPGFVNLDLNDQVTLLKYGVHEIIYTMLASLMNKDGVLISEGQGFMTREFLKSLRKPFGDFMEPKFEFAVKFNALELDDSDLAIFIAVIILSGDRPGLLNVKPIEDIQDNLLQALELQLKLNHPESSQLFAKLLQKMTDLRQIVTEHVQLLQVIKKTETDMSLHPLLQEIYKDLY

SMILES	affinity to DNA [1]	efficacy in lowering plasma glucose, insulin, and triglyceride levels [2]	potency relative to rosiglitazone [2]	mode of action at PPAR-gamma (PPAR-gamma)
CC[C@@]1(O)C(=O)OCc2c1cc1n(c2=O)Cc2cc3ccccc3nc2-1 [CPT, (S)-(+)-camptothecin]	high affinity	–	–	–
O=C1NC(=O)C(Cc2ccc3cc(OCc4ccccc4F)ccc3c2)S1 (stereo not shown) [netoglitazone, 5-[{6-(2-fluorobenzyl)oxy-2-naphthyl}methyl]-2,4-thiazolidinedione]	–	more efficacious than pioglitazone and troglitazone	about three-fold more potent than rosiglitazone	full agonist of PPAR-gamma and as a partial agonist or antagonist in others
